The test system of assay [1] is BaF3 FLT3 D835N mutant cells. The assay can be described thus: MTT growth inhibition assay, BaF3 FLT3 D835N cells. In kind it is cell-based. As to conditions: Mus musculus, no IL-3, 48 h, read-out: Proliferation IC50. The protocol: (§1) Figure 1 Growth of AL mutants in the presence of FLT3 TKI The BaF3 AL mutants were grown in the absence of IL-3 and analyzed by treatment in increasing concentrations of FLT3 TKI for 48 hours, after which growth inhibition was assessed using the MTT assay. Means are representative of at least three independent experiments.
(§2) The cells were grown in the absence of IL3 and analyzed by treatment in increasing concentrations of FLT3 TKI for 48 hours, after which growth inhibition was assessed using the MTT assay. Each experiment was performed at least three times and representative results are shown.
(§3) Based on Trypan Blue exclusion, 2 × 10^4 viable cells were seeded in quadruplicate in a 96-well microtiter plate in the presence or absence of inhibitor for 48 h. The effect of drug activity on cell viability was measured using the 3-(4,5-Dimethylthiazol-2-yl)-2,5-diphenyltetrazolium bromide (MTT) assay according to the manufacturer's instructions (Roche Applied Science, Indianapolis, IN, USA). Following treatment, cells were incubated for 4 h in MTT followed by dissolution in solubilization buffer overnight. Absorbance was measured at 570 nm on a Bio-Rad plate reader (Hercules, CA, USA). […] Results shown are presented as means and are representative of at least three independent experiments.
In general terms: Formazan colour is commonly taken as a measure of viable cells.

Assay [2] concerns BaF3 FLT3 D835Y mutant cells. The assay can be described thus: MTT growth inhibition assay, BaF3 FLT3 D835Y cells. In kind it is cell-based. As to conditions: Mus musculus, no IL-3, 48 h, read-out: Proliferation IC50. How it is done: as §1, §2, §3
Assay [3] deals with BaF3/ITD cells. The assay can be described thus: MTT growth inhibition assay, BaF3 FLT3-ITD cells. The assay is classed as cell-based. The note with it: Mus musculus, no IL-3, 48 h, read-out: Proliferation IC50. The protocol: as §1, §2, §3
Assay [4] has as its system BaF3 FLT3 D835A mutant cells. The assay can be described thus: MTT growth inhibition assay, BaF3 FLT3 D835A cells. The assay is classed as cell-based. The note with it: Mus musculus, read-out: Proliferation IC50. The protocol:
as §1, §2, §3

Assay [5] relates to BaF3 FLT3 D835G mutant cells. The assay can be described thus: MTT growth inhibition assay, BaF3 FLT3 D835G cells. As to conditions: Mus musculus, no IL-3, 48 h, read-out: Proliferation IC50. The assay is classed as cell-based. The protocol: as §1, §2, §3
Assay [6] concerns BaF3 FLT3 I836T mutant cells. The assay can be described thus: MTT growth inhibition assay, BaF3 FLT3 I836T cells. In kind it is cell-based. As to conditions: Mus musculus, no IL-3, 48 h, read-out: Proliferation IC50. How it is done:
as §1, §2, §3

Assay [7] has as its system BaF3 FLT3 I836L+D mutant cells. The assay can be described thus: MTT growth inhibition assay, BaF3 FLT3 I836L+D cells. The assay is classed as cell-based. As to conditions: Mus musculus, no IL-3, 48 h, read-out: Proliferation IC50. The protocol: as §1, §2, §3
Assay [8] concerns BaF3 FLT3 840G+S mutant cells. The assay can be described thus: MTT growth inhibition assay, BaF3 FLT3 840G+S cells. The assay is classed as cell-based. The note with it: Mus musculus, no IL-3, 48 h, read-out: Proliferation IC50. The protocol: as §1, §2, §3
Assay [9] deals with BaF3 FLT3 D593D mutant cells. The assay can be described thus: MTT growth inhibition assay, BaF3 FLT3 D593D cells. In kind it is cell-based. As to conditions: Mus musculus, no IL-3, 48 h, read-out: Proliferation IC50. The protocol: as §1, §2, §3
For assay [10], the system named is BaF3 FLT3 I836S mutant cells. The assay can be described thus: MTT growth inhibition assay, BaF3 FLT3 I836S cells. In kind it is cell-based. The note with it: Mus musculus, read-out: Proliferation IC50. The protocol:
as §1, §2, §3

The test system of assay [11] is BaF3 FLT3 D835L+K mutant cells. The assay can be described thus: MTT growth inhibition assay, BaF3 FLT3 D835L+K cells. The assay is classed as cell-based. The note with it: Mus musculus, no IL-3, 48 h, read-out: Proliferation IC50. The protocol:
as §1, §2, §3

The subject of assay [12] is FLT3/ITD. The assay can be described thus: FLT3/ITD autophosphorylation and signaling pathways, Western blot. In kind it is cell-based. The note with it: FLT3/ITD cells, 1 h, concentration-dependent. How it is done:
(§4) Activated FLT3 expression was measured by performing immunoprecipitation, SDS-PAGE and Western blotting as previously described. Specifically, 10^7 cells were washed in medium and treated with inhibitor for 1 h followed by stimulation with 25 ng/ml of FLT3 ligand for 15 minutes where indicated. Cells were washed twice with ice-cold PBS and lysed in 300 µl of NP-40 lysis buffer (150 mM NaCl, 20 mM TrisHCl (pH7.4), 10% glycerol, 1% NP-40, 10 mM EDTA, 100 mM NaF) with 2 mM Na3VO4 and protease inhibitors (Complete Tablets, Roche, Mannheim, Germany) at 4°C for 30 m. Cell lysate was harvested by centrifugation at 13,000 × g for 30 m at 4°C. FLT3 S-18 antibody was incubated with 500 µg lysate overnight at 4°C followed by immunoprecipitation with protein A-agarose beads for 2 h. Beads were washed once in Tris buffered saline with 1% Tween-20 (TBST) and twice in TBS. Samples were boiled in sodium dodecyl sulfate (SDS) sample buffer prior to separating in a 8% SDS-polyacrylamide gel (SDS-PAGE). Proteins were transferred to a polyvinyl diflouride (PVDF) membrane (Millipore, Bedford, MA, USA) and detected by 4G10 phosphotyrosine antibody and anti-FLT3 S-18 antibody. FLT3 was visualized using the Odyssey Infra Red Imaging System from Li-Cor (Lincoln, NE, USA) using AlexaFluor 680 goat anti-mouse and AlexaFluor 800 goat anti-rabbit antibodies. Phosphorylation of the FLT3 downstream signaling mediators, STAT5, AKT and MAP kinase was investigated by loading 50 µg of whole cell lysate and probing with the indicated antibodies. The membrane was washed and incubated in goat anti-rabbit secondary antibody conjugated to horseradish peroxidase followed by enhanced chemiluminescence (ECL). The membrane was subsequently stripped in 200 mM glycine buffer, pH 2.5 with 0.1% Tween-20 and reprobed for STAT5, AKT and MAP kinase expression using the respective antibodies.
On the technique in general: A western blot detects proteins with antibodies after separation by electrophoresis.

For assay [13], the system named is all FLT3 AL mutants. As to conditions: read-out: FLT3 autophosphorylation IC50, BaF3 cells, 1 h treatment, Western blot. How it is done:
as §4, with “Phosphorylation of the FLT3 downstream signaling mediators, STAT5, AKT and MAP kinase was investigated by loading 50 µg of whole cell lysate and probing with the indicated antibodies. The membrane was washed and incubated in goat anti-rabbit secondary antibody conjugated to horseradish peroxidase followed by enhanced chemiluminescence (ECL). The membrane was subsequently stripped in 200 mM glycine buffer, pH 2.5 with 0.1% Tween-20 and reprobed for STAT5, AKT and MAP kinase expression using the respective antibodies.” left out

In assay [14] the test system is BaF3 FLT3 D835Y cells. The assay can be described thus: Engraftment of BaF3 D835Y luciferase cells in BALB/c mice, bioluminescence imaging. The assay is classed as in vivo. The note with it: 20 mg/kg twice daily subcutaneous, day 5 to day 9. How it is done: On day 5 following transplantation, the level of engraftment was assessed by imaging mice for bioluminescence on an IVIS Spectrum imager. […] This experiment was repeated three times.
Cells were sorted for GFP and CD135 expression on a FACS AriaII cytometer using FACSDiva software. For engraftment, 2 ×10^6 cells were injected via tail vein into BALB/c mice (Jackson Laboratories, Bar Harbor, ME, USA) (day 0). […] [36, 37] […] Mice were imaged by intraperitoneal injection of luciferin (3 mg) and visualizing on an IVIS Spectrum imager (Caliper LifeSciences, Hopkinton, MA, USA) using Living Image software for analysis on day 5 following inoculation to monitor engraftment and on day 9 to assess drug effect. All animal procedures were conducted in accordance with the policy of the Johns Hopkins University School of Medicine Animal Care and Use Committee.

Where [15] appears, read: BaF3 FLT3 D835A, no IL-3, 48 h, MTT.
Setting [16] is: BaF3 FLT3 I836S, no IL-3, 48 h, MTT.

pIC50: −log10 of the molar value. Where two headings read alike, the source gives them in different places.

Turning to `O=C(c1ccc(/C=C/c2n[nH]c3ccccc23)cc1)N1CCNCC1` [KW2449], the pIC50 in assay [1] was 7.23; in [2], less than 6.70; in [3], 7.39; in assay [4] (setting [15]), 7.21; in assay [5] it was 7.25; in [6], 7.50. Moreover, the pIC50 in assay [7] is less than 6.70; in assay [8], 7.46; in [9], less than 6.70; in [10] (setting [16]), less than 6.70; in [11], less than 6.70.
Consider `C[C@]12O[C@H](C[C@]1(O)CO)n1c3ccccc3c3c4c(c5c6ccccc6n2c5c31)CNC4=O` [Lestaurtinib], for which the pIC50 in assay [1] is 8.12; in assay [2], 8.01; in [3] it was 8.07; in assay [13] it was not below 8.30; in assay [4] (BaF3, 48 h) it was 8.30; in [5] it was 8.22. Besides, the pIC50 in [6] was 7.87; in assay [7], 8.68; in [8], 8.10; in [9], 8.10; in assay [10] (BaF3, 48 h), 7.82; in assay [11], 8.68. Besides, the “Inhibition of FLT3 autophosphorylation and phosphorylation of STAT5, AKT and Map kinase” value in assay [12] is “inhibited FLT3 autophosphorylation”. Further, the “Leukemic burden (bioluminescence) on day 9” value in [14] is “greatly reduced”.
With `Cc1ccc(F)c(NC(=O)Nc2ccc(-c3cccc4[nH]nc(N)c34)cc2)c1` [Linifanib], the pIC50 in [1] was 7.99; in assay [2], less than 7.00; in assay [3], 8.62; in assay [4] (setting [15]), less than 6.70; in assay [5], 8.07; in assay [6], 8.28. For the same molecule, the pIC50 in assay [7] was less than 6.70; in assay [8], 8.68; in assay [9], less than 6.70; in assay [10] (setting [16]), less than 6.70; in [11], less than 6.70.
With `CO[C@@H]1[C@H](N(C)C(=O)c2ccccc2)C[C@H]2O[C@]1(C)n1c3ccccc3c3c4c(c5c6ccccc6n2c5c31)C(=O)NC4` [Midostaurin], in assay [8], the pIC50 is 7.92.
